Experimental findings from the NIST ThermoML archive (doi:10.1016/j.jct.2017.11.017) are described below.

The nature of the series: activity coefficient (dimensionless); of the first substance listed, at infinite dilution; xn = mol fraction of the nth substance listed. To be noted: 101.33 kPa, Liquid, Chromatography, x1 = 0.

Numbers after ± are expanded uncertainties.

Regarding `Cc1ccccc1C` [1,2-dimethylbenzene] + C[N+]1(CCCO)CCOCC1.N#C[N-]C#N, the activity coefficient (318.15 K) came out at 18.2 ± 1.2; the activity coefficient (328.15 K) was found to be 18.6 ± 1.3; the activity coefficient (338.15 K) worked out at 18.8 ± 1.3; the activity coefficient (348.15 K) amounted to 19 ± 1.3; the activity coefficient (358.15 K) came to 19.2 ± 1.3; the activity coefficient (368.15 K) came out at 19.5 ± 1.3.

As to `Cc1ccccc1C` [1,2-dimethylbenzene] + C[n+]1ccn(CCCO)c1.N#CN=C=[N-], the activity coefficient turned out to be 10.9 ± 0.7 (318.15 K); 11.3 ± 0.8 (328.15 K); 11.7 ± 0.8 (338.15 K); 12 ± 0.8 (348.15 K); 12.5 ± 0.9 (358.15 K); 12.8 ± 0.9 (368.15 K).

As for `Cc1cccc(C)c1` [1,3-dimethylbenzene] + C[N+]1(CCCO)CCOCC1.N#C[N-]C#N, the activity coefficient stood at 24.1 ± 1.6 (318.15 K); 24.1 ± 1.6 (328.15 K); 24.2 ± 1.7 (338.15 K); 24.3 ± 1.7 (348.15 K); 24.3 ± 1.7 (358.15 K); 24.5 ± 1.7 (368.15 K).

Regarding `Cc1cccc(C)c1` [1,3-dimethylbenzene] + C[n+]1ccn(CCCO)c1.N#CN=C=[N-], the activity coefficient (318.15 K) turned out to be 14.1 ± 1; the activity coefficient (328.15 K) was determined as 14.5 ± 1; the activity coefficient (338.15 K) came out at 14.9 ± 1; the activity coefficient (348.15 K) is 15.2 ± 1; the activity coefficient (358.15 K) came to 15.6 ± 1.1; the activity coefficient (368.15 K) amounted to 16 ± 1.1.

For `Cc1ccc(C)cc1` [1,4-dimethylbenzene] + C[N+]1(CCCO)CCOCC1.N#C[N-]C#N, the activity coefficient (318.15 K) came to 23.2 ± 1.6; the activity coefficient (328.15 K) is 23.3 ± 1.6; the activity coefficient (338.15 K) is 23.5 ± 1.6; the activity coefficient (348.15 K) came to 23.7 ± 1.6; the activity coefficient (358.15 K) is 23.8 ± 1.6; the activity coefficient (368.15 K) is 24.1 ± 1.6.

For `Cc1ccc(C)cc1` [1,4-dimethylbenzene] + C[n+]1ccn(CCCO)c1.N#CN=C=[N-], the activity coefficient is 13.5 ± 0.9 (318.15 K); 13.9 ± 1 (328.15 K); 14.3 ± 1 (338.15 K); 14.7 ± 1 (348.15 K); 15.1 ± 1 (358.15 K); 15.5 ± 1.1 (368.15 K).

As to `C1COCCO1` [1,4-dioxane] + C[N+]1(CCCO)CCOCC1.N#C[N-]C#N, the activity coefficient runs as follows: (318.15 K) 1.94 ± 0.13; (328.15 K) 2.07 ± 0.14; (338.15 K) 2.2 ± 0.15; (348.15 K) 2.33 ± 0.16; (358.15 K) 2.45 ± 0.17; (368.15 K) 2.59 ± 0.18.

Take `C1COCCO1` [1,4-dioxane] + C[n+]1ccn(CCCO)c1.N#CN=C=[N-]: the activity coefficient (318.15 K) came to 1.73 ± 0.12; the activity coefficient (328.15 K) was 1.85 ± 0.12; the activity coefficient (338.15 K) came out at 1.98 ± 0.13; the activity coefficient (348.15 K) was 2.09 ± 0.14; the activity coefficient (358.15 K) turned out to be 2.23 ± 0.15; the activity coefficient (368.15 K) is 2.34 ± 0.16.

For the compound `C=CCCCCCCCC` [1-decene] + C[N+]1(CCCO)CCOCC1.N#C[N-]C#N, the activity coefficient by setting is: (308.15 K) 1640 ± 110; (318.15 K) 1460 ± 100; (328.15 K) 1300 ± 89; (338.15 K) 1160 ± 80; (348.15 K) 1050 ± 72; (358.15 K) 952 ± 66. For the same compound, the activity coefficient (368.15 K) came out at 875 ± 60.

Regarding `C=CCCCCCCCC` [1-decene] + C[n+]1ccn(CCCO)c1.N#CN=C=[N-], the activity coefficient runs as follows: (298.15 K) 879 ± 61; (308.15 K) 819 ± 56; (318.15 K) 764 ± 53; (328.15 K) 710 ± 49; (338.15 K) 662 ± 46; (348.15 K) 627 ± 43. Further, the activity coefficient (358.15 K) turned out to be 590 ± 41.

Turning to `C=CCCCCC` [1-heptene] + C[N+]1(CCCO)CCOCC1.N#C[N-]C#N, the activity coefficient (298.15 K) was 793 ± 55; the activity coefficient (308.15 K) turned out to be 634 ± 44; the activity coefficient (318.15 K) came out at 519 ± 36; the activity coefficient (328.15 K) worked out at 425 ± 29; the activity coefficient (338.15 K) stood at 359 ± 25.

On to `C=CCCCCC` [1-heptene] + C[n+]1ccn(CCCO)c1.N#CN=C=[N-], for which the activity coefficient is, setting by setting: (298.15 K) 208 ± 14; (308.15 K) 194 ± 13; (318.15 K) 176 ± 12; (328.15 K) 166 ± 11; (338.15 K) 156 ± 11; (348.15 K) 146 ± 10. In addition, the activity coefficient (358.15 K) was 139 ± 10.

Regarding `C#CCCCCC` [1-heptyne] + C[N+]1(CCCO)CCOCC1.N#C[N-]C#N, the activity coefficient was 82.9 ± 5.7 (308.15 K); 79.8 ± 5.5 (318.15 K); 76.7 ± 5.3 (328.15 K); 74 ± 5.1 (338.15 K); 72 ± 4.9 (348.15 K); 69.8 ± 4.8 (358.15 K). For the setting “368.15 K”, the activity coefficient was 68.1 ± 4.7.

Consider `C#CCCCCC` [1-heptyne] + C[n+]1ccn(CCCO)c1.N#CN=C=[N-], for which the activity coefficient was 34 ± 2.3 (298.15 K); 34.3 ± 2.3 (308.15 K); 34.6 ± 2.4 (318.15 K); 34.6 ± 2.4 (328.15 K); 35.1 ± 2.4 (338.15 K); 35.3 ± 2.4 (348.15 K). Besides, the activity coefficient (358.15 K) came out at 35.3 ± 2.4.

For `C#CCCCC` [1-hexyne] + C[N+]1(CCCO)CCOCC1.N#C[N-]C#N, the activity coefficient runs as follows: (308.15 K) 44.5 ± 3; (318.15 K) 42.9 ± 2.9; (328.15 K) 41.6 ± 2.8; (338.15 K) 40.2 ± 2.8; (348.15 K) 39.1 ± 2.7; (358.15 K) 38 ± 2.6. For the setting “368.15 K”, the activity coefficient came out at 37 ± 2.5.

In the case of `C#CCCCC` [1-hexyne] + C[n+]1ccn(CCCO)c1.N#CN=C=[N-], the activity coefficient (298.15 K) is 18.8 ± 1.3; the activity coefficient (308.15 K) is 19.3 ± 1.3; the activity coefficient (318.15 K) came out at 19.6 ± 1.3; the activity coefficient (328.15 K) came to 20 ± 1.4; the activity coefficient (338.15 K) came to 20.3 ± 1.4; the activity coefficient (348.15 K) came out at 20.6 ± 1.4. Moreover, the activity coefficient (358.15 K) is 21.4 ± 1.5.

Regarding `CCC[N+](=O)[O-]` [1-nitropropane] + C[N+]1(CCCO)CCOCC1.N#C[N-]C#N, the activity coefficient runs as follows: (318.15 K) 3.26 ± 0.22; (328.15 K) 3.35 ± 0.23; (338.15 K) 3.47 ± 0.24; (348.15 K) 3.55 ± 0.24; (358.15 K) 3.65 ± 0.25; (368.15 K) 3.74 ± 0.25.

With `CCC[N+](=O)[O-]` [1-nitropropane] + C[n+]1ccn(CCCO)c1.N#CN=C=[N-], the activity coefficient is 2.69 ± 0.18 (318.15 K); 2.79 ± 0.19 (328.15 K); 2.89 ± 0.2 (338.15 K); 2.97 ± 0.2 (348.15 K); 3.08 ± 0.21 (358.15 K); 3.17 ± 0.22 (368.15 K).

`C#CCCCCCC` [1-octyne] + C[N+]1(CCCO)CCOCC1.N#C[N-]C#N: the activity coefficient by setting is: (308.15 K) 151 ± 10; (318.15 K) 145 ± 10; (328.15 K) 138 ± 9; (338.15 K) 133 ± 9; (348.15 K) 128 ± 9; (358.15 K) 122 ± 8. Where the note is “368.15 K”, the activity coefficient was 118 ± 8.

As for `C#CCCCCCC` [1-octyne] + C[n+]1ccn(CCCO)c1.N#CN=C=[N-], the activity coefficient turned out to be 60.1 ± 4.1 (298.15 K); 60.2 ± 4.1 (308.15 K); 59.8 ± 4.1 (318.15 K); 59.6 ± 4.1 (328.15 K); 59.6 ± 4.1 (338.15 K); 59.4 ± 4.1 (348.15 K). Where the note is “358.15 K”, the activity coefficient is 59.6 ± 4.1.

As to `C=CCCC` [1-pentene] + C[n+]1ccn(CCCO)c1.N#CN=C=[N-], the activity coefficient is, setting by setting: (298.15 K) 74 ± 5.1; (308.15 K) 68.1 ± 4.7; (318.15 K) 63.5 ± 4.3; (328.15 K) 59.3 ± 4.1.

For `C#CCCC` [1-pentyne] + C[N+]1(CCCO)CCOCC1.N#C[N-]C#N, the activity coefficient (308.15 K) worked out at 24.2 ± 1.7; the activity coefficient (318.15 K) came to 23.6 ± 1.6; the activity coefficient (328.15 K) came out at 23.1 ± 1.6; the activity coefficient (338.15 K) amounted to 22.7 ± 1.6; the activity coefficient (348.15 K) was found to be 22.4 ± 1.5; the activity coefficient (358.15 K) was 22 ± 1.5. For the same compound, for the setting “368.15 K”, the activity coefficient was 21.7 ± 1.5.
